How the values were obtained:
ACACB [1] = assay: qRT-PCR mRNA expression in HepG2 cells; assay type: cell-based, human
Protocol: (§1) The human HepG2 cells and HEK 293T cells used in the following examples were originally obtained from the American Tissue Culture Collection (ATCC, USA). The human HCC HepG2 cell line was cultured in Minimum Essential Medium Eagle (Sigma) supplemented with 10% fetal bovine serum (FBS) (Invitrogen), 2.2 g/L of sodium bicarbonate (Sigma), 0.1 mM of non-essential amino acids (Caisson), 1 mM of sodium pyruvate (Invitrogen), and 10 of ml/L penicillin-streptomycin-amphotericin solution (Biological Industries). Human HEK-293T cells were maintained in high-glucose Dulbecco's modified eagle medium (Invitrogen) supplemented with 10% FBS and 3.7 g/L of sodium bicarbonate (Sigma). Both cell lines were cultured at 37° C. and 5% CO2. A 50 mM stock solution of berberine chloride (Sigma-Aldrich) was prepared in dimethyl sulfoxide (DMSO). Cells were treated with 40 μM of berberine chloride or 0.08% DMSO as the control. For induction of lipid droplets formation in cultured cells, 200 μM of oleic acid (Sigma-Aldrich) was added into the culture medium for 24 h. Total RNA was extracted using a TRIZOL reagent (Invitrogen) according to the manufacturer's protocol. The total RNA quantity was measured using a NanoDrop ND-1000 spectrophotometer (Nanodrop Technologies). The total RNA quality and integrity were assayed using an Agilent 2100 bioanalyzer with an RNA 6000 nano kit (Agilent Technologies). Total RNAs (1 μg) were reverse-transcribed into cDNA by using M-MuLV Reverse Transcriptase (Thermo) and Oligo(dT)12-18 primers (Invitrogen) according to the manufacturer's protocol. The cDNA were then used for a real-time PCR with a LightCycler 480 SYBR Green I Master (Roche) by using primers shown in the following Table 1. The gene expression levels were normalized to GAPDH levels. […] Cells were incubated for 24 h or 48 h with a microRNA mimic or inhibitor prior to RNA purification for gene expression analysis, and were incubated for 72 h for protein expression analysis.

MAT1A = assay: qRT-PCR mRNA expression in HepG2 cells; assay type: cell-based, human
Protocol: as §1

MAT2A = assay: qRT-PCR mRNA expression in HepG2 cells; assay type: cell-based, human; settings: for decrease in mRNA expression of MAT2A: HepG2, 50 nM mimic transfection
Protocol: as §1

MAT2B = assay: qRT-PCR mRNA expression in HepG2 cells; assay type: cell-based, human
Protocol: as §1

ACACA [2] = assay: qRT-PCR mRNA expression in primary human hepatocytes; assay type: cell-based; settings: PHH
Protocol: (§2) The primary human hepatocytes from Caucasian donors were purchased from Invitrogen and cultured following the manufacturer's instructions. The hepatocytes were thawed and transferred into cryopreserved hepatocytes recovery medium (CM7000, Invitrogen), centrifuging at room temperature, 100×g for 10 min. Then, the hepatocytes were diluted to seeding density with plating medium (CM3000, Invitrogen) and added into collagen I-coated plates (Invitrogen). These plates were incubated at 37° C. for 4-6 hours under 5% CO2 for forming a monolayer. Then, plating medium was replaced by overlay incubation medium (CM4000 and 0.35 mg/mL Geltrex™ Matrix, Invitrogen), and the incubation medium was replaced daily. In the following examples, hepatocytes form 3 to 4 donors were used for experiments. A 50 mM stock solution of berberine chloride (Sigma-Aldrich) was prepared in dimethyl sulfoxide (DMSO). Cells were treated with 40 μM of berberine chloride or 0.08% DMSO as the control. For induction of lipid droplets formation in cultured cells, 200 μM of oleic acid (Sigma-Aldrich) was added into the culture medium for 24 h. Total RNA was extracted using a TRIZOL reagent (Invitrogen) according to the manufacturer's protocol. The total RNA quantity was measured using a NanoDrop ND-1000 spectrophotometer (Nanodrop Technologies). The total RNA quality and integrity were assayed using an Agilent 2100 bioanalyzer with an RNA 6000 nano kit (Agilent Technologies). Total RNAs (1 μg) were reverse-transcribed into cDNA by using M-MuLV Reverse Transcriptase (Thermo) and Oligo(dT)12-18 primers (Invitrogen) according to the manufacturer's protocol. The cDNA were then used for a real-time PCR with a LightCycler 480 SYBR Green I Master (Roche) by using primers shown in the following Table 1. The gene expression levels were normalized to GAPDH levels.

ACACB [3] = assay: as above; assay type: cell-based; settings: PHH
Protocol: as §2

DGAT2 = assay: as above; assay type: cell-based; settings: PHH
Protocol: as §2

HLCS = assay: as above; assay type: cell-based
Protocol: as §2

MTOR = assay: as above; assay type: cell-based; settings: for decrease in MTOR expression: 50 nM mimic transfection
Protocol: as §2

RPTOR = assay: as above; assay type: cell-based; settings: for decrease in RPTOR expression: 50 nM mimic transfection
Protocol: as §2

ACACA [4] = assay: qRT-PCR mRNA expression in HepG2 cells; assay type: cell-based, human; settings: HepG2, mimic transfection, 24 h
Protocol: as §1

HepG2 cells = assay: Trypan blue dye exclusion assay (viable cell number); assay type: cell-based, human; settings: HepG2, 50 nM mimic transfection 48 h vs NC mimic
Protocol: FIG. 6A represents the number of viable HepG2 cells transfected with 50 nM of miR-21-3p mimic or negative-control (NC) mimic for 48 h, which is quantified using trypan blue dye exclusion assay. The data are represented as the mean±standard deviation for 3 independent experiments. The asterisk mark “*” indicates a significant difference with P<0.05.
The HepG2 cells were transfected at a density of 5×10^4 cells per well in a 24-well culture plates with either 50 nM of hsa-miR-21-3p (miR-21-3p mimic) or negative-control mimic (NC mimic), or with either 100 nM of hsa-miR-21-3p inhibitor (miR-21-3p inhibitor) or negative-control inhibitor (NC inhibitor) by using the DharmaFECT 4 transfection reagent (Thermo Scientific Dharmacon) according to the manufacturer's instructions. Cells were incubated for 24 h or 48 h with a microRNA mimic or inhibitor prior to RNA purification for gene expression analysis, and were incubated for 72 h for protein expression analysis.

[5] = HepG2, 40 μM berberine, up to 8 h
[6] = HepG2, 50 nM mimic transfection, 48 h
[7] = 24 h, cells not named in b149 (primary human hepatocytes)

Q: Which ACACB expression (ACACB [1]; HepG2, berberine (data not shown)) does the source give for `COc1ccc2cc3[n+](cc2c1OC)CCc1cc2c(cc1-3)OCO2` [berberine] here?
A: The ACACB expression was “consistently decreased”.

Q: And the “MAT1A mRNA expression change” value (MAT1A; [5])?
A: Its value is “did not change substantially”.

Q: And the “MAT2A mRNA level decrease” value (MAT2A; HepG2, 40 μM berberine, 2 h vs 0.08% DMSO)?
A: Its value is 1.8 fold.

Q: What about the “MAT2A mRNA level decrease” value (MAT2A; HepG2, 40 μM berberine, 4 h (lowest value) vs 0.08% DMSO) of the same molecule?
A: The value was 3.8 fold.

Q: And the “MAT2A mRNA level change (given as increase)” value (MAT2A; HepG2, 40 μM berberine, 8 h vs 0.08% DMSO)?
A: The value was 2.2 fold.

Q: And the “MAT2B mRNA expression change” value (MAT2B; [5])?
A: The value was “did not change substantially”.

Q: And the ACACA expression decrease (ACACA [2]; 40 μM berberine, 8 h)?
A: The ACACA expression decrease was 2.1 fold.

Q: What about the “mRNA expression of ACACB” value (ACACB [3]; 40 μM berberine, 4-8 h) of the same molecule?
A: The value was “decreases”.

Q: What about the “changes in DGAT2 expression levels” value (DGAT2; 40 μM berberine, 2-8 h) of the same molecule?
A: Its value is “not significant”.

Q: What about the “mRNA expression of HLCS” value (HLCS; PHH, 40 μM berberine, 4-8 h) of the same molecule?
A: Its value is “decreases”.

Q: What about the “mRNA expression of MTOR” value (MTOR; PHH, 40 μM berberine, 4-8 h) of the same molecule?
A: The value was “decreases”.

Q: And the “mRNA expression of RPTOR” value (RPTOR; PHH, 40 μM berberine, 4-8 h)?
A: The value was “decreases”.

Q: With “hsa-miR-21-3p (CAACACCAGUCGAUGGGCUGU; listed as RNA, chemistry not given here) [miR-21-3p mimic]” as the molecule, how does the “decrease in mRNA expression of ACACA” value (ACACA [4]) read?
A: The value was 44%.

Q: What about the “decrease in mRNA expression of ACACB” value (ACACB [1]; HepG2, mimic transfection, 24 h) of the same molecule?
A: Its value is 50%.

Q: What about the “decrease in mRNA expression of MAT1A” value (MAT1A; [6]) of the same molecule?
A: Its value is “but not in that of MAT1A”.

Q: What about the “decrease in mRNA expression of MAT2A” value (MAT2A; 24 hours) of the same molecule?
A: Its value is over 50%.

Q: And the “decrease in mRNA expression of MAT2A” value (MAT2A; 48 h)?
A: Its value is over 50%.

Q: What about the “decrease in mRNA expression of MAT2B” value (MAT2B; [6]) of the same molecule?
A: The value was over 50%.

Q: And the viable cell numbers (HepG2 cells)?
A: The viable cell numbers was “reduced the viable cell numbers”.

Q: And the ACACA expression decrease (ACACA [2]; 50 nM mimic transfection, 48 h)?
A: Its ACACA expression decrease is 1.6 fold.

Q: What about the ACACB expression decrease (ACACB [3]; 50 nM mimic transfection, 48 h) of the same molecule?
A: Its ACACB expression decrease is 1.8 fold.

Q: And the “decrease in mRNA expression levels of DGAT2” value (DGAT2; mimic transfection, 48 h)?
A: The value was 1.5 fold.

Q: What about the “decrease in HLCS expression” value (HLCS; 50 nM mimic transfection, 48 h, cells not given) of the same molecule?
A: Its value is 1.5 fold.

Q: What about the “decrease in MTOR expression” value (MTOR; [7]) of the same molecule?
A: The value was 1.4 fold.

Q: And the “decrease in MTOR expression” value (MTOR; 48 h, cells not given)?
A: Its value is 2.5 fold.

Q: What about the “decrease in RPTOR expression” value (RPTOR; [7]) of the same molecule?
A: The value was 1.6 fold.

Q: What about the “decrease in RPTOR expression” value (RPTOR; 48 h, cells not given) of the same molecule?
A: The value was 2.2 fold.
